In patent US11319298B2 (Merck Sharp & Dohme Corp., priority 2016, dated 2022):

Target: T1, human M4 muscarinic acetylcholine receptor (Homo sapiens, UniProt P08173)
T1 construct: expressed in transfected cells; host or cells: CHO-K1
T1 sequence (P08173 1-479): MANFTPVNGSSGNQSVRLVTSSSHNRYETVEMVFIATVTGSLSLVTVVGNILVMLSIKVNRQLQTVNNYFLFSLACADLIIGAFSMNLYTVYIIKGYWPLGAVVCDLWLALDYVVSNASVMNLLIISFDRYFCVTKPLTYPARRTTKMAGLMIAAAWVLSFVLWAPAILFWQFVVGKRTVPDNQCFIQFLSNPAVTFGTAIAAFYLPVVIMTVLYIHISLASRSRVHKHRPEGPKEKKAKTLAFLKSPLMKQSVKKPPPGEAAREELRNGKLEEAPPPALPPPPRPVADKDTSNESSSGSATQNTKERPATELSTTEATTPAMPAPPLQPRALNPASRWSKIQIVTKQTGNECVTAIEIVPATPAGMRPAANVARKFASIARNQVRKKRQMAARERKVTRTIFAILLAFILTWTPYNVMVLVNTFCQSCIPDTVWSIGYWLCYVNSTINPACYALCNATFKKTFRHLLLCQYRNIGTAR
Assay: human FLIPR-based M4 PAM assay, CHO-K1 cells stably transfected with human M4 receptor and chimeric G-protein Gαqi5
Format: cell-based
Conditions: inflection point (IP) of dose response curve; acetylcholine added at 20% of maximum response; CHO-K1 human M4/Gαqi5, FLIPR Tetra
Procedure, shortened: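 CHO-K1 cells were loaded with calcium dye at 37 °C for ~1 h. Fluorescence (ex 470–495/em 515–575 nm) was read for 4 min after test compound at increasing concentrations, then 3.5 min after acetylcholine at an EC20; sometimes a third addition at EC70 followed. The value is the inflection point of a 4-parameter logistic fit.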

Q: For `Cc1c(Cl)nc(CO)nc1N1CCC(Oc2ccc3nn(C)cc3c2)CC1` [Example 63], which EC50 is on record?
A: 99 nM

Q: How did the EC50 turn out when `COc1ccc(OC2CCN(c3nnc(C(=O)NC4CCNC4=O)cc3C)CC2)cn1` (stereo not shown) [Example 180, 6-{4-[(6-methoxypyridin-3-yl)oxy]piperidin-1-yl}-5-methyl-N-(2-oxopyrrolidin-3-yl)pyridazine-3-carboxamide] was run?
A: 808 nM

Q: For `COC(=O)c1cc(C)c(N2CCC(Oc3ccc(OC)nc3)CC2)nn1` [Example 70, methyl 6-(4-((6-methoxypyridin-3-yl)oxy)piperidin-1-yl)-5-methylpyridazine-3-carboxylate], which EC50 is on record?
A: 129 nM

Q: For `Cc1cc(C(=O)NCc2ccncc2)nnc1N1CCC(Oc2cccc(C#N)c2)CC1` [Example 204A, 6-(4-(3-cyanophenoxy)piperidin-1-yl)-5-methyl-N-(pyridin-4-ylmethyl)pyridazine-3-carboxamide], which EC50 is on record?
A: 99 nM

Q: For `COc1ccc(OC2CCN(c3nnc(C(=O)NCc4cc(F)c(OC)c(F)c4)cc3C)CC2)cn1` [Example 181, N-(3,5-difluoro-4-methoxybenzyl)-6-{4-[(6-methoxypyridin-3-yl)oxy]piperidin-1-yl}-5-methylpyridazine-3-carboxamide], which EC50 is on record?
A: 871 nM

Q: How did the EC50 turn out when `COc1ccc(OC2CCN(c3nnc(C(=O)NCc4ccccc4C#N)cc3C)CC2)cn1` [Example 178, N-(2-cyanobenzyl)-6-{4-[(6-methoxypyridin-3-yl)oxy]piperidin-1-yl}-5-methylpyridazine-3-carboxamide] was run?
A: 724 nM

Q: Which EC50 does the source give for `COc1ccc(OC2CCN(c3nnc(C(=O)NC4CCc5cc(F)ccc5C4)cc3C)CC2)cn1` (stereo not shown) [Example 168, N-(6-fluoro-1,2,3,4-tetrahydronaphthalen-2-yl)-6-{4-[(6-methoxypyridin-3-yl)oxy]piperidin-1-yl}-5-methylpyridazine-3-carboxamide] here?
A: 446 nM

Q: Which EC50 does the source give for `COc1ccc(OC2CCN(c3nc(SC)ncc3C#N)CC2)cn1` [Example 85, 4-(4-((6-methoxypyridin-3-yl)oxy)piperidin-1-yl)-2-(methylthio)pyrimidine-5-carbonitrile] here?
A: 1150 nM

Q: With `COc1ccc(OC2CCN(c3nc(SC)nc(Cl)c3C)CC2)cc1` [Example 16, 4-chloro-6-(4-(4-methoxyphenoxy)piperidin-1-yl)-5-methyl-2-(methylthio)pyrimidine] as the molecule, how does the EC50 read?
A: 1830 nM

Q: Which EC50 does the source give for `COc1ccc(OC2CCN(c3nnc(C(=O)NCc4ccncc4)cc3C)CC2)cc1` [Example 101, 6-(4-(4-Methoxyphenoxy)piperidin-1-yl)-5-methyl-N-(pyridin-4-ylmethyl)pyridazine-3-carboxamide] here?
A: 129 nM

Q: How did the EC50 turn out when `COc1ccc(OC2CCN(c3nc(CO)nc(C)c3C)CC2)cn1` [Example 241, (4-(4-((6-Methoxypyridin-3-yl)oxy)piperidin-1-yl)-5,6-dimethylpyrimidin-2-yl)methanol] was run?
A: 42 nM

Q: Which EC50 does the source give for `Cc1c(Cl)nc(CO)nc1N1CCC(Oc2cccc(S(C)(=O)=O)c2)CC1` [Example 42, (4-chloro-5-methyl-6-(4-(3-(methylsulfonyl)phenoxy)piepridin-1-yl)pyrimidin-2-yl)methanol] here?
A: 325 nM

Q: With `COc1ccc(O[C@@H]2CCN(c3nnc(C(=O)N[C@@H]4CCc5ncccc5C4)cc3C)C[C@@H]2F)cn1` [Example 138B, 6-((3S,4R)-3-fluoro-4-((6-methoxypyridin-3-yl)oxy)piperidin-1-yl)-5-methyl-N-((R)-5,6,7,8-tetrahydroquinolin-6-yl)pyridazine-3-carboxamide] as the molecule, how does the EC50 read?
A: 243 nM

Q: For `COc1ccc(OC2CCN(c3nnc(C(=O)NC45CC(C4)C5)cc3C)CC2)cn1` [Example 147, N-bicyclo[1.1.1]pent-1-yl-6-{4-[(6-methoxypyridin-3-yl)oxy]piperidin-1-yl}-5-methylpyridazine-3-carboxamide], which EC50 is on record?
A: 209 nM

Q: With `COc1ccc(OC2CCN(c3nc(C(=O)NC4CCc5cccnc5C4)nc(Cl)c3C)CC2)cn1` (stereo not shown) [Example 217, 4-chloro-6-(4-((6-methoxypyridin-3-yl)oxy)piperidin-1-yl)-5-methyl-N-(5,6,7,8-tetrahydroquinolin-7-yl)pyrimidine-2-carboxamide] as the molecule, how does the EC50 read?
A: 1020 nM

Q: Which EC50 does the source give for `Cc1c(Cl)nc(CO)nc1N1CCC(Oc2ccc3ccc(=O)oc3c2)CC1` [Example 2, 7-((1-(6-chloro-2-(hydroxymethyl)-5-methylpyrimidin-4-yl)piperidin-4-yl)oxy)-2H-chromen-2-one] here?
A: 427 nM

Q: `COc1ccc(OC2CCN(c3nc(C(=O)NCc4ccccc4Cl)nc(Cl)c3C)CC2)cn1` [Example 219, 4-chloro-N-(2-chlorobenzyl)-6-(4-((6-methoxypyridin-3-yl)oxy)piperidin-1-yl)-5-methylpyrimidine-2-carboxamide] was tested. Which EC50 did it give?
A: 1090 nM

Q: Which EC50 does the source give for `CCCCc1ncnc(N2CCC(Oc3ccc(OC)nc3)CC2)c1C` [Example 256, 4-butyl-6-(4-((6-methoxypyridin-3-yl)oxy)piperidin-1-yl)-5-methylpyrimidine] here?
A: 2630 nM

Q: `Cc1ncc(C)c(N2CC[C@H](Oc3cccc(C#N)c3)[C@H](F)C2)n1` [Example 81, 3-(((3R,4S)-1-(2,5-dimethylpyrimidin-4-yl)-3-fluoropiperidin-4-yl)oxy)benzonitrile] was tested. Which EC50 did it give?
A: 293 nM

Q: How did the EC50 turn out when `Cc1cc(C(=O)N[C@@H]2CCc3cccnc3C2)nnc1N1CCC(Oc2cccc(C#N)c2)CC1` [Example 164B, (R)-6-[4-(3-cyanophenoxy)piperidin-1-yl]-5-methyl-N-(5,6,7,8-tetrahydroquinolin-7-yl)pyridazine-3-carboxamide] was run?
A: 338 nM

Q: For `Cc1cc(C(=O)NCc2ccccc2)nnc1N1CCC(Oc2cccc(C#N)c2)CC1` [Example 194, N-benzyl-6-[4-(3-cyanophenoxy)piperidin-1-yl]-5-methylpyridazine-3-carboxamide], which EC50 is on record?
A: 51 nM

Q: How did the EC50 turn out when `Cc1ncc(C)c(N2CCC(Oc3ccc4c(c3)C(=O)NC4)CC2)n1` [Example 100, 6-((1-(2,5-dimethylpyrimidin-4-yl)piperidin-4-yl)oxy)isoindolin-1-one] was run?
A: 674 nM

Q: How did the EC50 turn out when `COc1ccc(OC2CCN(c3nnc(C(=O)NC4CC4)cc3C)CC2)cn1` [Example 161, N-cyclopropyl-6-{4-[(6-methoxypyridin-3-yl)oxy]piperidin-1-yl}-5-methylpyridazine-3-carboxamide] was run?
A: 302 nM

Q: With `COc1ccc(OC2CCN(c3nnc(C(=O)NC4CCc5cccnc54)cc3C)CC2)cn1` (stereo not shown) [Example 170, N-(6,7-dihdyro-5H-cyclopenta[b]pyridin-7-yl)-6-{4-[(6-methoxypyridin-3-yl)oxy]piperidin-1-yl}-5-methylpyridazine-3-carboxamide] as the molecule, how does the EC50 read?
A: 465 nM

Q: With `Cc1ncc(C)c(N2CC[C@@H](Oc3cccc(C#N)c3)[C@@H](F)C2)n1` [Example 75, 3-(((3S,4R)-1-(2,5-dimethylpyrimidin-4-yl)-3-fluoropiperidin-4-yl)oxy)benzonitrile] as the molecule, how does the EC50 read?
A: 156 nM

Q: How did the EC50 turn out when `COc1ccc(OC2CCN(c3nc(C)nc(Cl)c3C)CC2)cc1` [Example 62, 4-chloro-6-(4-(4-methoxyphenoxy)piperidin-1-yl)-2,5-dimethylpyrimidine] was run?
A: 94 nM

Q: How did the EC50 turn out when `COc1ccc(OC2CCN(c3nnc(C(=O)N[C@H]4CCc5cccnc5C4)cc3C)CC2)cn1` [Example 126B, (S)-6-{4-[(6-methoxypyridin-3-yl)oxy]piperidin-1-yl}-5-methyl-N-(5,6,7,8-tetrahydroquinolin-7-yl)pyridazine-3-carboxamide] was run?
A: 159 nM

Q: For `Cc1cc(C(=O)NC2C3CC2C3)nnc1N1CCC(Oc2cccc(C#N)c2)CC1` (stereo not shown) [Example 117, N-bicyclo[1.1.1]pent-2-yl-6-[4-(3-cyanophenoxy)piperidin-1-yl]-5-methylpyridazine-3-carboxamide], which EC50 is on record?
A: 85 nM

Q: Which EC50 does the source give for `Cc1c(Cl)ncnc1N1CCC(Oc2cccnc2)CC1` [Example 14, 4-chloro-5-methyl-6-(4-(pyridin-3-yloxy)piperidin-1-yl)pyrimidine] here?
A: 609 nM

Q: `COc1ccc(OC2CCN(c3nnc(C(=O)NC4(C)CCCC4)cc3C)CC2)cn1` [Example 185, 6-{4-[(6-methoxypyridin-3-yl)oxy]piperidin-1-yl}-5-methyl-N-(1-methylcyclopentyl)pyridazine-3-carboxamide] was tested. Which EC50 did it give?
A: 1040 nM

Q: How did the EC50 turn out when `Cc1c(Cl)nc(CO)nc1N1CCC(Oc2ccc3c(c2)CCCN3)CC1` [Example 93, (4-chloro-5-methyl-6-(4-((1,2,3,4-tetrahydroquinolin-6-yl)oxy)piperidin-1-yl)pyrimidin-2-yl)methanol] was run?
A: 33 nM

Q: For `Cc1c(Cl)nc(CO)nc1N1CC[C@@H](Oc2ccc3[nH]ncc3c2)[C@@H](F)C1` [Example 90, (4-((3S,4R)-4-((1H-indazol-5-yl)oxy)-3-fluoropiperidin-1-yl)-6-chloro-5-methylpyrimidin-2-yl)methanol], which EC50 is on record?
A: 20 nM

Q: How did the EC50 turn out when `Cc1cc(C(=O)NCc2ccncc2)nnc1N1CCC(Oc2cnn(C)c2)CC1` [Example 22, 5-methyl-6-(4-((1-methyl-1H-pyrazol-4-yl)oxy)piperidin-1-yl)-N-(pyridin-4-ylmethyl)pyridazine-3-carboxamide] was run?
A: 74 nM

Q: With `COc1ccc(OC2CCN(c3ncnc(N4Cc5cccnc5C4)c3C)CC2)cn1` [Example 232, 6-(6-(4-((6-methoxypyridin-3-yl)oxy)piperidin-1-yl)-5-methylpyrimidin-4-yl)-6,7-dihydro-5H-pyrrolo[3,4-b]pyridine] as the molecule, how does the EC50 read?
A: 1490 nM
